# According to ChEMBL document CHEMBL5465560, “Selectivity Literature for EUbOPEN Chemogenomic Library” (2024):
# Legend:
# [1] = target: Serine/threonine-protein kinase 24 (Homo sapiens) (UniProt Q9Y6E0); assay: Selectivity interaction (KinomeScan (DiscoverX)) EUB0000699a STK24; details: at 10 µM
# [2] = target: Histone-lysine N-methyltransferase 2C (Homo sapiens) (UniProt Q8NEZ4); assay: Selectivity interaction (Methyltransferase screen (Scintillation proximity assays)) EUB0000255b MLL3
# [3] = target: Atypical kinase COQ8A, mitochondrial (Homo sapiens, UniProt Q8NI60); assay: Selectivity interaction (KinomeScan (DiscoverX)) EUB0001079a ADCK3; details: at 1 µM
# [4] = target: T1, cGMP-dependent protein kinase 1 (Homo sapiens) (UniProt Q13976); assay: Selectivity interaction (KinomeScan (DiscoverX)) EUB0000618a PRKG1; details: at 10 µM
# T1 sequence (whole entry): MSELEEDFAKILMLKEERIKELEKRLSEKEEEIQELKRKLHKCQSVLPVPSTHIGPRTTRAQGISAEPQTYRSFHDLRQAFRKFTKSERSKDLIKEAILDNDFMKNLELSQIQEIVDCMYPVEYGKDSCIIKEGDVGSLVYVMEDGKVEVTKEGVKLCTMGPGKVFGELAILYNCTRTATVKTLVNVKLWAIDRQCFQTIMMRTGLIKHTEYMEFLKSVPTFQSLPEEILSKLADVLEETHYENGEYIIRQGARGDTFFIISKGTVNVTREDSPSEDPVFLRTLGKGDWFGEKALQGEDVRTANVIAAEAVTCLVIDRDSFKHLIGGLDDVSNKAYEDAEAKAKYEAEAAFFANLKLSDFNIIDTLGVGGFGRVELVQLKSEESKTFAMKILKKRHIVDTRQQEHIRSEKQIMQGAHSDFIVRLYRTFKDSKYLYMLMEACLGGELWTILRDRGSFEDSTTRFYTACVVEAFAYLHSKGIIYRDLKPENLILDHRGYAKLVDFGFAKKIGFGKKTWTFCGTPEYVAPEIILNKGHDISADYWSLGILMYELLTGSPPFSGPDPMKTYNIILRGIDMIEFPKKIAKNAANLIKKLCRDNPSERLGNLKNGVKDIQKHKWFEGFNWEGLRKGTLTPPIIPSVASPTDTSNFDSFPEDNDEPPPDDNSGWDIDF
# [5] = target: Phosphorylase b kinase gamma catalytic chain, skeletal muscle/heart isoform (Homo sapiens) (UniProt Q16816); assay: Selectivity interaction (KinomeScan (DiscoverX)) EUB0000618a PHKG1; details: at 10 µM
# [6] = target: T2, Serine/threonine-protein kinase TAO1 (Homo sapiens) (UniProt Q7L7X3); assay: Selectivity interaction (KinomeScan (DiscoverX)) EUB0000618a TAOK1; details: at 10 µM
# T2 sequence (whole entry): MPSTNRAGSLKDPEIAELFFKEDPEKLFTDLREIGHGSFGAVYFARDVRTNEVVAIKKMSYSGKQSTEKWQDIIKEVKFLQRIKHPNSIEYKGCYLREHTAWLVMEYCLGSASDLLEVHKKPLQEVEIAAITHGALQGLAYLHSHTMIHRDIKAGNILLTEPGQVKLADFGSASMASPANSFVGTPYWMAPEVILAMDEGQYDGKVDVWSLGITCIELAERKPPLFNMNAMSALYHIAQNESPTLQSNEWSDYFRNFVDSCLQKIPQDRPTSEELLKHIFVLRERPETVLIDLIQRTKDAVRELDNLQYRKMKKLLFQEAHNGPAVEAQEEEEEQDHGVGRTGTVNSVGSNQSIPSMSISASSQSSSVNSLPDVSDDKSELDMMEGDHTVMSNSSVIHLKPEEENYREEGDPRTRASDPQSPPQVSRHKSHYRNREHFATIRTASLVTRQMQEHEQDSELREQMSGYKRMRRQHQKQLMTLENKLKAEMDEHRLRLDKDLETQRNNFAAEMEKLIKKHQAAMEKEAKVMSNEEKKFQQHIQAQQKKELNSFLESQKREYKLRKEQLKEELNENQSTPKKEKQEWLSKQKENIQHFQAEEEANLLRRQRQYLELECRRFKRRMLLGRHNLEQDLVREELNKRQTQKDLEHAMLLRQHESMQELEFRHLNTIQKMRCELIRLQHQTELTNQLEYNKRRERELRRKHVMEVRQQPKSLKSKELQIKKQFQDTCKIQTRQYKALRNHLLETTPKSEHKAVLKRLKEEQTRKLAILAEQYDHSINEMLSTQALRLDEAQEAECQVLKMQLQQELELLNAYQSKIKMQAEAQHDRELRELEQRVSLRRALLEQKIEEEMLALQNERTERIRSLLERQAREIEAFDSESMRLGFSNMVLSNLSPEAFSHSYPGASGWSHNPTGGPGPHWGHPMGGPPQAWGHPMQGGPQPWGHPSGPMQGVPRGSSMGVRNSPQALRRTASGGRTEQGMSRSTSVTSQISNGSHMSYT
# [7] = target: T3, Mitogen-activated protein kinase kinase kinase 13 (Homo sapiens) (UniProt O43283); assay: Selectivity interaction (KinomeScan (DiscoverX)) EUB0000607a MAP3K13; details: at 10 µM
# T3 sequence (whole entry): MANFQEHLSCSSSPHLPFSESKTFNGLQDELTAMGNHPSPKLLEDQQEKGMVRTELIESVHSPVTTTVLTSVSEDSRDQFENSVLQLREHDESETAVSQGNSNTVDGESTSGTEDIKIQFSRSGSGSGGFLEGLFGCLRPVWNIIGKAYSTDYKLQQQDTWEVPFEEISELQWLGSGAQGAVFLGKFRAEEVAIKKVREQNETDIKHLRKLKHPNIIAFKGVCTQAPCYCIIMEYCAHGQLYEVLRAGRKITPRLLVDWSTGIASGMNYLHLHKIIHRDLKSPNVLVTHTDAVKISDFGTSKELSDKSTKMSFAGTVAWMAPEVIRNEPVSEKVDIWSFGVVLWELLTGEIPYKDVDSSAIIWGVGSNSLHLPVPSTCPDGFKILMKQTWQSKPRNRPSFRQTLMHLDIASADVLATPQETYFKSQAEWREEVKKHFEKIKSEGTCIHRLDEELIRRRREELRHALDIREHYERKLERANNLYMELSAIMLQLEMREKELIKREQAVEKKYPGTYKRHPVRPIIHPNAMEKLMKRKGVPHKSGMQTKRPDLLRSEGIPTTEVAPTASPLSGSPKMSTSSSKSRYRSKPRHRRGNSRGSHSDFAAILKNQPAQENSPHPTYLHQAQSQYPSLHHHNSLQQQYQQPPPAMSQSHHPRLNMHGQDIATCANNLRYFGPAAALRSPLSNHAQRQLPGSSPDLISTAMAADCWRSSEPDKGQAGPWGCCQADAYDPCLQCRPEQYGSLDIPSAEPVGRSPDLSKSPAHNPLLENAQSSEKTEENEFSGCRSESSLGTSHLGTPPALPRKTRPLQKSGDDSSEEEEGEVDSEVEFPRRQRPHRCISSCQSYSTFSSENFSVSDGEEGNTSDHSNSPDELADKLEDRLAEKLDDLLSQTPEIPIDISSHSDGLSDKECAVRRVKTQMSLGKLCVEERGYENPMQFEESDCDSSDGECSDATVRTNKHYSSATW
# [8] = target: Mitogen-activated protein kinase 10 (Homo sapiens, UniProt P53779); assay: Selectivity interaction (KinomeScan (DiscoverX)) EUB0000666a MAPK10; details: at 10 µM
# Chain of Histone-lysine N-methyltransferase 2C (Homo sapiens) (Q8NEZ4 whole entry): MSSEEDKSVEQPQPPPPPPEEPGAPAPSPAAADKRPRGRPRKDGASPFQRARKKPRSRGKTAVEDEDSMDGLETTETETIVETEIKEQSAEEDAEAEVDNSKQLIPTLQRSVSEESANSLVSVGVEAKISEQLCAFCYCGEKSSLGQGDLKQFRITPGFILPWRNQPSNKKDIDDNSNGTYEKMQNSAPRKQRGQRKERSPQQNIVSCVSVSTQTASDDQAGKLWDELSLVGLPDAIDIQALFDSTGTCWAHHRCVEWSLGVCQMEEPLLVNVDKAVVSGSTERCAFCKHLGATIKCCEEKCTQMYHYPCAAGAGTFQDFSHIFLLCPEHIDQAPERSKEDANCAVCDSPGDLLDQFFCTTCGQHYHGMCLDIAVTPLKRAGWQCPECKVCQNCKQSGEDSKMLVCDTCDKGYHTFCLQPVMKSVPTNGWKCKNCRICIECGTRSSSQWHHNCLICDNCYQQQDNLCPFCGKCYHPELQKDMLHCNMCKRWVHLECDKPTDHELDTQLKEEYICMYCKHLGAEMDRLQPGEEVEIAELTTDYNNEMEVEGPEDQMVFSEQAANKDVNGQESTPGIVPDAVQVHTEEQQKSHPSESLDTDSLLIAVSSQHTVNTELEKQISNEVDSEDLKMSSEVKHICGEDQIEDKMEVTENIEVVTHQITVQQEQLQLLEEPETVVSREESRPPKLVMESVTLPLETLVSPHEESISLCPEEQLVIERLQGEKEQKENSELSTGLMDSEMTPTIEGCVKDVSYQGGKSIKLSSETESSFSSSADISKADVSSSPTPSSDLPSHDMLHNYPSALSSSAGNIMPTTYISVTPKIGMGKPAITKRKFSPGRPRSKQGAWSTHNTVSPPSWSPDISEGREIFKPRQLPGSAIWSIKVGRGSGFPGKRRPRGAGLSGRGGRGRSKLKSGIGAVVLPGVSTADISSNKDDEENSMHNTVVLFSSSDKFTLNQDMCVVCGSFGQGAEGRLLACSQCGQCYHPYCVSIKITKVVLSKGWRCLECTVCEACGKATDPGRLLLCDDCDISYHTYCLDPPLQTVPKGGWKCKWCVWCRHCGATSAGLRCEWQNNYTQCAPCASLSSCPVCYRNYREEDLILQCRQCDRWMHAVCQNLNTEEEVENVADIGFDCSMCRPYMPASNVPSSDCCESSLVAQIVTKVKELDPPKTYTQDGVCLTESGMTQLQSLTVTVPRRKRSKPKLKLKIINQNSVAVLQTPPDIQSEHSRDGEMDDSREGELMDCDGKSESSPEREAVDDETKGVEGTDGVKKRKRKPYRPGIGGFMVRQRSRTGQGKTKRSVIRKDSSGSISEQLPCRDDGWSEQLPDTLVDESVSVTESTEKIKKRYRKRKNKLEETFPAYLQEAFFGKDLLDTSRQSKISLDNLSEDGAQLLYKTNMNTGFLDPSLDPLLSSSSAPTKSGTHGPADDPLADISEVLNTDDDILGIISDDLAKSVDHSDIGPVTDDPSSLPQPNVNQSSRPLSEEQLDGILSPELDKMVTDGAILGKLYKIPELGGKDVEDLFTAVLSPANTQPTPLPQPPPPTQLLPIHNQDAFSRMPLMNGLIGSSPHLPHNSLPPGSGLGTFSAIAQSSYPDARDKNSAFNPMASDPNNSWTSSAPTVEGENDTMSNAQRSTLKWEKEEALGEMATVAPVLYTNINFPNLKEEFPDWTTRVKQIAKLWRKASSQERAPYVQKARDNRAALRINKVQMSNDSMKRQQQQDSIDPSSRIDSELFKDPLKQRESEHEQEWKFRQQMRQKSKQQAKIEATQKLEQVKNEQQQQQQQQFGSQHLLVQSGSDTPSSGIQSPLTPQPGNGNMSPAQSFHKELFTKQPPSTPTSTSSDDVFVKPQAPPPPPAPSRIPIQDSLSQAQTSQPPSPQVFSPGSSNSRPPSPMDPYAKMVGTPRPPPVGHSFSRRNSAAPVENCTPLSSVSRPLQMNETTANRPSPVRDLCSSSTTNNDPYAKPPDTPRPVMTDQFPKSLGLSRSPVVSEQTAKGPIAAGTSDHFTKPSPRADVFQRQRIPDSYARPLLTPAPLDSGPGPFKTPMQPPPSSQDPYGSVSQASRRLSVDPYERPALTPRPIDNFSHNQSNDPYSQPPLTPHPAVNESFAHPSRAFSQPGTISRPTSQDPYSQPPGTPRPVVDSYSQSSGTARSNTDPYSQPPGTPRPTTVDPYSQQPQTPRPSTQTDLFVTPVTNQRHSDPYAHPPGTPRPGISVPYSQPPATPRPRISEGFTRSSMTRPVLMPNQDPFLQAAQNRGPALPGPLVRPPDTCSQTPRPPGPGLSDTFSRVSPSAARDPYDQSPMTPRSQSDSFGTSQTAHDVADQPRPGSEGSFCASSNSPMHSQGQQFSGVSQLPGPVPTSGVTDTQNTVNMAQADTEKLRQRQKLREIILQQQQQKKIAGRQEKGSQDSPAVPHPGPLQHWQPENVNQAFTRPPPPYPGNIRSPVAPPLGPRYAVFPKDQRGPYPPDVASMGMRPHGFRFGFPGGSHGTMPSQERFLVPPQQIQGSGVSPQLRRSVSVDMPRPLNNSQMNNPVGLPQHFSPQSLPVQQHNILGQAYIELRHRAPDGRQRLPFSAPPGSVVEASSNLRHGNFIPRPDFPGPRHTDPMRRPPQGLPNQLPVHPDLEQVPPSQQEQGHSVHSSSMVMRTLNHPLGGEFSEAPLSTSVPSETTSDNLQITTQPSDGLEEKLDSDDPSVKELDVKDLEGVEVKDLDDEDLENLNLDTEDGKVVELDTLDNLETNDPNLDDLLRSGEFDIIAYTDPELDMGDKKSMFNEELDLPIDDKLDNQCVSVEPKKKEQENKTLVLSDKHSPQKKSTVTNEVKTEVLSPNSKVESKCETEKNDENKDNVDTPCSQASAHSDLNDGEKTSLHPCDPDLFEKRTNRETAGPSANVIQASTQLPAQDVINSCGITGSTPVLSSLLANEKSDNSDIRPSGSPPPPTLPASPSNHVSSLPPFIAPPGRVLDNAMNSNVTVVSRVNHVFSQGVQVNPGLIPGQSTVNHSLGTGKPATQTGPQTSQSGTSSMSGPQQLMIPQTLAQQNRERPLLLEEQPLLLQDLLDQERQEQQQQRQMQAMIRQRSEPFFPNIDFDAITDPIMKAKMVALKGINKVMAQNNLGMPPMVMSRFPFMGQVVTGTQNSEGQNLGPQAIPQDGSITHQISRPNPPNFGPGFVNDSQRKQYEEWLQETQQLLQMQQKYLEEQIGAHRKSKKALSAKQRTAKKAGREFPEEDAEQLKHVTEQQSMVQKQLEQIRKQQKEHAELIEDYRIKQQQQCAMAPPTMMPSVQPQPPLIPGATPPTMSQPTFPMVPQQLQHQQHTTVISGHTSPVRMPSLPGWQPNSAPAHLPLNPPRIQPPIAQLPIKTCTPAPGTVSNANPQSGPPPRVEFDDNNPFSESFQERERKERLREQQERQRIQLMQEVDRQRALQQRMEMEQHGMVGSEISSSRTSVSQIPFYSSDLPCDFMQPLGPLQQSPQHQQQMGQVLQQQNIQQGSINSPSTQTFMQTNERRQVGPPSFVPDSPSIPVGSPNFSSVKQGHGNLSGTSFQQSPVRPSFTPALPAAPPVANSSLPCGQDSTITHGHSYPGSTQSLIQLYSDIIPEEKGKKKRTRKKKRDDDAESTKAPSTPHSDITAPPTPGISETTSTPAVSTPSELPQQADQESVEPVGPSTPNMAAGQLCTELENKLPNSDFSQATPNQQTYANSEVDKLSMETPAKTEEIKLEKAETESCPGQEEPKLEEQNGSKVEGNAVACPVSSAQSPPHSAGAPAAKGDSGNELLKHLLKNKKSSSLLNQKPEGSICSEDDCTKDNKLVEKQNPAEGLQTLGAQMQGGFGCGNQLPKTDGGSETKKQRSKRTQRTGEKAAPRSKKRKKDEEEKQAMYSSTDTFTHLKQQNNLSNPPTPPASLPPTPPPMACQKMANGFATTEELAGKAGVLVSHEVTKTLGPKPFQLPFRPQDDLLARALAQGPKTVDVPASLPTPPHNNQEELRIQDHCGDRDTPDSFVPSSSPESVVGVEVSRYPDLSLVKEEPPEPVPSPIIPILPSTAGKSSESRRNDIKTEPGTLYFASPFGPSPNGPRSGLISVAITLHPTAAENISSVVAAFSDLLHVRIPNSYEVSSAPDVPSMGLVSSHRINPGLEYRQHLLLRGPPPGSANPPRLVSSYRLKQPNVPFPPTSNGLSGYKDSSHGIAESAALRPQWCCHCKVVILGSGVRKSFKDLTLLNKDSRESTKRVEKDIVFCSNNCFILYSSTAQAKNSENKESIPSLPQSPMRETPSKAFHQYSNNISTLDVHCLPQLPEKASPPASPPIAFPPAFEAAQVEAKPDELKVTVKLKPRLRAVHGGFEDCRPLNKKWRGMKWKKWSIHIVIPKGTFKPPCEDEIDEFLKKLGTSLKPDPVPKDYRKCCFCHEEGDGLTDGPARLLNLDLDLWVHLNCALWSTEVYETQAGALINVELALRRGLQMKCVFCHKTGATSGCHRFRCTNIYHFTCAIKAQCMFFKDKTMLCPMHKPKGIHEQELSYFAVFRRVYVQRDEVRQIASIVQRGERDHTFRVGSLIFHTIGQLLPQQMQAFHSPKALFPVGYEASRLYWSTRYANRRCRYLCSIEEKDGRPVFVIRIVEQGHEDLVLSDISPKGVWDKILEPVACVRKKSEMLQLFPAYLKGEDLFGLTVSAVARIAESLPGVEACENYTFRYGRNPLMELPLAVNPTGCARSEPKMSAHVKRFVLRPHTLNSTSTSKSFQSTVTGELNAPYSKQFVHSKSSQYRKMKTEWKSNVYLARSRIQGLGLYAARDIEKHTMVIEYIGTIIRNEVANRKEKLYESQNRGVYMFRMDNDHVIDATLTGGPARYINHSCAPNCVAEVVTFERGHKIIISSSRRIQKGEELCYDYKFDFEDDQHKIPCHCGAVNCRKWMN
compound,measurement,setting,value
CCN(CC)CCCCNc1ncc2cc(-c3cc(OC)cc(OC)c3)c(NC(=O)NC(C)(C)C)nc2n1,% of control,[1],7%
COCCN1CCC(c2cc(CN(C)C(=O)c3cccc(Oc4ccccc4)c3)ccn2)CC1,% activity,[2]; at 1 µM,> 95%
same,% activity,[2]; at 10 µM,> 90%
Nc1cnc(N2CCc3cc(S(=O)(=O)Nc4c(F)cc(Cl)cc4F)cc(N4CCCC4=O)c32)nc1 [TP-020n],% of control,[3],100%
O[C@H]1CC[C@H](Nc2ncc3nc(Nc4c(F)cc(F)cc4F)n([C@H]4CCOC4)c3n2)CC1,% of control,[4],100%
same,% of control,[5],100%
same,% of control,[6],81%
CNC(=O)Nc1ccc(-c2nc(N3CC4CCC(C3)O4)c3cnn(C4CCC5(CC4)OCCO5)c3n2)cc1,% of control,[7],82%
O=C(NOC[C@H](O)CO)c1ccc(F)c(F)c1Nc1ccc(I)cc1F,% of control,[8],90%
